Measurements as given in patent US20240246980A1, “MODULATORS OF MAS-RELATED G-PROTEIN RECEPTOR D AND RELATED PRODUCTS AND METHODS” (Escient Pharmaceuticals, Inc., priority 2022, published 2024).

biological target: human MRGPRD (Homo sapiens, UniProt Q8TDS7); experiment: MRGPRD antagonist activity, IP-One HTRF assay in CHO cells stably expressing human MRGPRD (versus 100 μM β-Alanine agonist); assay type: cell-based
Summary of the method: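 Cells (20,000/well, plated overnight) received antagonist and agonist in buffer with 5.7 mM Tris-HCl, 43 mM NaCl and 50 mM LiCl at pH 8. Incubation ran 1 h at 37 °C, then 1 h at room temperature, before IP-1 HTRF detection. IC50 was fitted from the HTRF ratio, and percent antagonism was taken relative to the maximum efficacy response, given as averages with SEM.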

human MRGPRD, sequence (Q8TDS7 whole entry): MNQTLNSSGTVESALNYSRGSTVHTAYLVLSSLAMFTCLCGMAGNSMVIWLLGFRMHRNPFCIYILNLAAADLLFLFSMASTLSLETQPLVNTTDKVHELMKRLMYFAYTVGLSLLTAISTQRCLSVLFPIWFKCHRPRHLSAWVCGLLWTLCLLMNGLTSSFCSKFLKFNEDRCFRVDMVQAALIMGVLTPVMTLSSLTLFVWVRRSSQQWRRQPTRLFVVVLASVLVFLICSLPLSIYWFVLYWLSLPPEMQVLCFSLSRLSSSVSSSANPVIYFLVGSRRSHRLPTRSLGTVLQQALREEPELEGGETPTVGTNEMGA

| Compound | IC50 [nM] |
| --- | --- |
| CN(C)c1ccc(NC(=O)N2CCC[C@@H](c3nc(-c4cc5ccccc5s4)c4ccccn34)C2)cc1 [Compound 10-61] | > 3000 |
| CN(C)c1ccc(NC(=O)N2CCC[C@@H](c3nc(-c4cnn(CC5CC5)c4)c4ccccn34)C2)cc1 [Compound 10-62] | 1000 to 3000 |
| CN(C)c1ccc(NC(=O)N2CCC[C@@H](c3nc(-c4cnn(-c5ccccc5)c4)c4ccccn34)C2)cc1 [Compound 10-63] | 1000 to 3000 |
| CN(C)Cc1cccc(-c2nc([C@@H]3CCCN(C(=O)Nc4ccc(N(C)C)cc4)C3)n3ccccc23)c1 [Compound 10-64] | > 3000 |
| CN(C)c1ccc(NC(=O)N2CCC[C@@H](c3nc(-c4ccccc4CC#N)c4ccccn34)C2)cc1 [Compound 10-65] | 500 to 1000 |
| CN(C)c1ccc(NC(=O)N2CCC[C@@H](c3nc(-c4ccccc4S(C)(=O)=O)c4ccccn34)C2)cc1 [Compound 10-66] | > 3000 |
| COCc1cccc(-c2nc([C@@H]3CCCN(C(=O)Nc4ccc(N(C)C)cc4)C3)n3ccccc23)c1 [Compound 10-67] | 1000 to 3000 |
| CN(C)c1ccc(NC(=O)N2CCC[C@@H](c3nc(-c4nn(C)c5ccccc45)c4ccccn34)C2)cc1 [Compound 10-68] | 500 to 1000 |
| CC(C)Cn1nc(C(F)(F)F)cc1-c1nc([C@@H]2CCCN(C(=O)Nc3ccc(N(C)C)cc3)C2)n2ccccc12 [Compound 10-69] | 500 to 1000 |
| COC(=O)c1cccc(-c2nc([C@@H]3CCCN(C(=O)Nc4ccc(N(C)C)cc4)C3)n3ccccc23)c1 [Compound 10-70] | < 100 |
| CN(C)C(=O)c1cccc(-c2nc([C@@H]3CCCN(C(=O)Nc4ccc(N(C)C)cc4)C3)n3ccccc23)c1 [Compound 10-71] | < 100 |
| CN(C)c1ccc(NC(=O)N2CCC[C@@H](c3nc(-c4cnn(C(F)F)c4)c4ccccn34)C2)cc1 [Compound 10-72] | 100 to 500 |
| Cc1ccccc1-c1nc(C2CCCN(C(=O)Nc3ccccc3F)C2)n2ccccc12 (stereo not drawn) [Compound 11-1] | 1000 to 3000 |
| O=C(Nc1ccccc1F)N1CCCC(c2nc(-c3ccccc3F)c3ccccn23)C1 (stereo not drawn) [Compound 11-2] | 1000 to 3000 |
| COc1ccccc1-c1nc(C2CCCN(C(=O)Nc3ccccc3F)C2)n2ccccc12 (stereo not drawn) [Compound 11-3] | 1000 to 3000 |
| Cc1cccc(-c2nc(C3CCCN(C(=O)Nc4ccccc4F)C3)n3ccccc23)c1 (stereo not drawn) [Compound 11-4] | > 3000 |
| O=C(Nc1ccccc1F)N1CCCC(c2nc(-c3cccc(F)c3)c3ccccn23)C1 (stereo not drawn) [Compound 11-5] | 1000 to 3000 |
| O=C(Nc1ccccc1F)N1CCCC(c2nc(-c3cccnc3)c3ccccn23)C1 (stereo not drawn) [Compound 11-6] | > 3000 |
| Cc1ccc(-c2nc(C3CCCN(C(=O)Nc4ccccc4F)C3)n3ccccc23)cc1 (stereo not drawn) [Compound 11-7] | 1000 to 3000 |
| O=C(Nc1ccccc1F)N1CCCC(c2nc(-c3ccc(F)cc3)c3ccccn23)C1 (stereo not drawn) [Compound 11-8] | 1000 to 3000 |
| O=C(Nc1ccccc1F)N1CCCC(c2nc(-c3ccncc3)c3ccccn23)C1 (stereo not drawn) [Compound 11-10] | 1000 to 3000 |
| O=C(Nc1ccccc1F)N1CCCC(c2nc(-c3ccccn3)c3ccccn23)C1 (stereo not drawn) [Compound 11-11] | > 3000 |
| COc1cccc(-c2nc(C3CCCN(C(=O)Cc4ccccc4F)C3)n3ccccc23)c1 (stereo not drawn) [Compound 12-1, 2-(2-fluorophenyl)-1-(3-(1-(3-methoxyphenyl)imidazo[1,5-a]pyridin-3-yl)piperidin-1-yl)ethan-1-one] | 100 to 500 |

| Compound | IC50 [nM] |
| --- | --- |
| COc1cccc(-c2nc(C3CCCN(C(=O)Cc4ccc(F)cc4)C3)n3ccccc23)c1 (stereo not drawn) [Compound 12-2] | 500 to 1000 |
| COc1cccc(-c2nc(C3CCCN(C(=O)c4ccc(F)cc4)C3)n3ccccc23)c1 (stereo not drawn) [Compound 12-3] | 500 to 1000 |
| COc1cccc(-c2nc(C3CCCN(C(=O)Cc4cccc(F)c4)C3)n3ccccc23)c1 (stereo not drawn) [Compound 12-4] | 100 to 500 |
| COc1cccc(-c2nc(C3CCCN(C(=O)c4ccccc4F)C3)n3ccccc23)c1 (stereo not drawn) [Compound 12-5] | 500 to 1000 |
| COc1cccc(-c2nc(C3CCCN(C(=O)c4cccc(F)c4)C3)n3ccccc23)c1 (stereo not drawn) [Compound 12-6] | 100 to 500 |
| COc1cccc(-c2nc(C3CCCN(C(=O)c4ccc(C)cc4F)C3)n3ccccc23)c1 (stereo not drawn) [Compound 12-7] | 500 to 1000 |
| COc1cccc(-c2nc(C3CCCN(C(=O)c4ccc(C)cc4C)C3)n3ccccc23)c1 (stereo not drawn) [Compound 12-8] | 1000 to 3000 |
| COc1cccc(-c2nc(C3CCCN(C(=O)c4ccc(OC)cc4C)C3)n3ccccc23)c1 (stereo not drawn) [Compound 12-9] | 500 to 1000 |
| COc1cccc(-c2nc(C3CCCN(C(=O)c4ccc(F)cc4C)C3)n3ccccc23)c1 (stereo not drawn) [Compound 12-10] | 1000 to 3000 |
| COc1cccc(-c2nc(C3CCCN(C(=O)c4ccc(F)cc4F)C3)n3ccccc23)c1 (stereo not drawn) [Compound 12-11] | 500 to 1000 |
| COc1cccc(-c2nc(C3CCCN(C(=O)c4ccc(F)c(F)c4)C3)n3ccccc23)c1 (stereo not drawn) [Compound 12-12] | 500 to 1000 |
| COc1cccc(-c2nc([C@@H]3CCCN(C(=O)Cc4cccc(F)c4)C3)n3ccccc23)c1 [Compound 12-13] | 100 to 500 |
| COc1cccc(-c2nc([C@@H]3CCCN(C(=O)c4cccc(F)c4)C3)n3ccccc23)c1 [Compound 12-14] | 500 to 1000 |
| COc1cccc(-c2nc([C@H]3CCCN(C(=O)c4cccc(F)c4)C3)n3ccccc23)c1 [Compound 12-15] | 100 to 500 |
| COc1cccc(-c2nc([C@H]3CCCN(C(=O)Cc4cccc(F)c4)C3)n3ccccc23)c1 [Compound 12-16] | 1000 to 3000 |
| COc1cccc(-c2nc(C3CCCN(C(=O)Nc4ccccc4F)C3)n3c(OC)cccc23)c1 (stereo not drawn) [Compound 13-1, N-(2-fluorophenyl)-3-(5-methoxy-1-(3-methoxyphenyl)imidazo[1,5-a]pyridin-3-yl)piperidine-1-carboxamide] | 100 to 500 |
| COc1cccc(-c2nc(C3CCCN(C(=O)c4ccccc4OC)C3)n3c(OC)cccc23)c1 (stereo not drawn) [Compound 14-1, (3-(5-methoxy-1-(3-methoxyphenyl)imidazo[1,5-a]pyridin-3-yl)piperidin-1-yl)(2-methoxyphenyl)methanone] | 500 to 1000 |
| COc1cccc(-c2nc(C3CCCN(C(=O)c4cc(OC)c(OC)c(OC)c4)C3)n3c(OC)cccc23)c1 (stereo not drawn) [Compound 14-2] | > 3000 |
| COc1cccc(C(=O)N2CCCC(c3nc(-c4cccc(OC)c4)c4cccc(OC)n34)C2)c1 (stereo not drawn) [Compound 14-3] | > 3000 |
| COc1ccc(C(=O)N2CCCC(c3nc(-c4cccc(OC)c4)c4cccc(OC)n34)C2)cc1 (stereo not drawn) [Compound 14-4] | 100 to 500 |
| COc1cccc(-c2nc(C3CCCN(C(=O)c4ccc(OC)c(OC)c4)C3)n3c(OC)cccc23)c1 (stereo not drawn) [Compound 14-5] | 100 to 500 |
| COc1cccc(-c2nc(C3CCCN(C(=O)Cc4ccccc4OC)C3)n3c(OC)cccc23)c1 (stereo not drawn) [Compound 15-1, 1-(3-(5-methoxy-1-(3-methoxyphenyl)imidazo[1,5-a]pyridin-3-yl)piperidin-1-yl)-2-(2-methoxyphenyl)ethan-1-one] | 500 to 1000 |

Now from value to molecule:

| IC50 [nM] | Compound |
| --- | --- |
| 500 to 1000 | COc1cccc(-c2nc(C3CCCN(S(=O)(=O)c4ccccc4F)C3)n3ccccc23)c1 (stereo not drawn) [Compound 16-1] |
| > 3000 | COc1cccc(-c2nc(C3CCCN(S(=O)(=O)c4ccc(F)cc4)C3)n3ccccc23)c1 (stereo not drawn) [Compound 16-3] |
| 100 to 500 | COc1cccc(-c2nc(C3CCCN(S(=O)(=O)Cc4cccc(F)c4)C3)n3ccccc23)c1 (stereo not drawn) [Compound 16-4] |
| > 3000 | COc1cccc(-c2nc(C3CCCN(S(=O)(=O)Cc4ccccc4F)C3)n3ccccc23)c1 (stereo not drawn) [Compound 16-5] |
| 100 to 500 | COc1cccc(-c2nc(C3CCCN(S(=O)(=O)Cc4ccc(F)cc4)C3)n3ccccc23)c1 (stereo not drawn) [Compound 16-6] |
| 100 to 500 | COc1cccc(-c2nc([C@@H]3CCCN(S(=O)(=O)c4cccc(F)c4)C3)n3ccccc23)c1 [Compound 16-7] |
| 1000 to 3000 | COc1cccc(-c2nc([C@H]3CCCN(S(=O)(=O)Cc4ccc(F)cc4)C3)n3ccccc23)c1 [Compound 16-8] |
| < 100 | COc1cccc(-c2nc([C@@H]3CCCN(S(=O)(=O)Cc4ccc(F)cc4)C3)n3ccccc23)c1 [Compound 16-9] |
| 1000 to 3000 | COc1cccc(-c2nc([C@H]3CCCN(S(=O)(=O)c4cccc(F)c4)C3)n3ccccc23)c1 [Compound 16-10] |
| 100 to 500 | COc1cccc(-c2nc(C3CCCN(C(=O)Nc4ccccc4F)C3)n3cccc(C)c23)c1 (stereo not drawn) [Compound 17-1, N-(2-fluorophenyl)-3-(1-(3-methoxyphenyl)-8-methylimidazo[1,5-a]pyridin-3-yl)piperidine-1-carboxamide] |
| 500 to 1000 | COc1cccc(-c2nc(C3CCCN(C(=O)Nc4ccccc4F)C3)n3ccc(C)cc23)c1 (stereo not drawn) [Compound 17-2] |
| 100 to 500 | COc1cccc(-c2nc(C3CCCN(C(=O)Nc4ccccc4F)C3)n3c(C)cccc23)c1 (stereo not drawn) [Compound 17-3] |
| 100 to 500 | COc1cccc(-c2nc(C3CCCN(C(=O)Nc4ccccc4F)C3)n3cc(C)ccc23)c1 (stereo not drawn) [Compound 18-1, N-(2-fluorophenyl)-3-(1-(3-methoxyphenyl)-6-methylimidazo[1,5-a]pyridin-3-yl)piperidine-1-carboxamide] |
| > 3000 | COc1cccc(-c2nc(C3CCCN(C(=O)Nc4ccccc4F)C3)n3cccc(OC)c23)c1 (stereo not drawn) [Compound 19-1] |
| > 3000 | COc1cccc(-c2nc(C3CCCN(C(=O)Nc4ccccc4F)C3)n3ccc(OC)cc23)c1 (stereo not drawn) [Compound 19-2] |
| 1000 to 3000 | COc1cccc(-c2nc(C3CCCN(C(=O)Nc4ccccc4F)C3)n3cc(OC)ccc23)c1 (stereo not drawn) [Compound 19-3, N-(2-fluorophenyl)-3-(6-methoxy-1-(3-methoxyphenyl)imidazo[1,5-a]pyridin-3-yl)piperidine-1-carboxamide] |
| < 100 | COc1cccc(-c2nn([C@@H]3CCCN(C(=O)Nc4ccc(N(C)C)cc4)C3)c3ncccc23)c1 [Compound 20-1, (R)—N-(4-(dimethylamino)phenyl)-3-(3-(3-methoxyphenyl)-1H-pyrazolo[3,4-b]pyridin-1-yl)piperidine-1-carboxamide] |
| < 100 | COc1cccc(-c2nn([C@@H]3CCCN(C(=O)Nc4cccc(N(C)C)c4)C3)c3ncccc23)c1 [Compound 20-2] |
